Laboratory results taken from US8603989B2, “Method for treating and preventing kidney stones employing an SGLT2 inhibitor and composition containing same” (Bristol-Myers Squibb Company, priority 2008, dated 2013).

Assays:
diabetic patients = test: 12-week treatment of diabetic patients: urine glucose, HbA1c, urine volume (Table 5); format: in vivo, human
healthy subjects = conditions: healthy subjects, 5, 20, 50 or 100 mg, within 24 hours, indirect comparison
type 2 diabetic patients = tested on: type 2 diabetic patients
From the text: C-aryl glucoside SGLT2 inhibitors are known to reduce blood glucose levels in diabetic patients, see U.S. Pat. No. 6,774,112, which is incorporated herein by reference in its entirety, but not known to increase urine volume. […] Metformin reduces plasma glucose concentration by non-renal mechanisms and is not known to induce glucosuria. […] On day 1 and day 14, the patients were examined for the levels of glucosuria and changes in urine volumes.

patients with diabetes = conditions: patients with diabetes, 5, 25 or 100 mg
From the text: The levels of urine glucose of all subjects are shown in the plot and the mean urine glucose is in the darker lines.

[1] = tested on: human SGLT2 (hSGLT2) relative to human SGLT1 (hSGLT1); conditions: ratio of EC50 in favor of SGLT2
Method: Selectivity for SGLT2 of a given inhibitor can be determined by comparing the EC50 values measured in the SGLT1 and SGLT2 assay. […] Cells expressing hSGLT1 or hSGLT2 were maintained using standard cell culture techniques. Assays for sodium-dependent glucose transport in 96-well plates were initiated by adding 100 μl/well of protein-free assay buffer containing sodium (Hepes/Tris pH 7.4, 137 mM NaCl, 5.4 mM KCl, 2.8 mM CaCl2, 1.2 mM MgSO4), 10 μM ^14C-AMG and inhibitor or dimethyl sulfoxide (DMSO) vehicle, and plates were incubated for 2 h at 37° C. Sodium-dependent ^14C-AMG uptake was calculated by subtracting the counts per minute (CPM) observed under sodium-free uptake conditions from the counts observed under sodium-containing conditions. Inhibitors were assayed at various concentrations in triplicate in the presence of sodium, and the percent inhibition was calculated by comparing CPM in inhibitor-containing wells with CPM in wells containing only DMSO vehicle. Phlorizin, a known SGLT inhibitor, was evaluated in parallel in every assay. A dose-response curve was fitted to an empirical four-parameter model using XL Fit (IDBS, Guilford, UK) to determine the inhibitor concentration at half-maximal response (EC50). SGLT2 selectivity is represented as a ratio of EC50 in favor of SGLT2.

[2] = 2.5-50 mg, after 12 weeks of treatment

CN(C)C(=N)N=C(N)N [Metformin, reference compound]
HbA1c reduction from baseline (diabetic patients; 1500 mg metformin, 12 weeks): 0.73%

CCOc1ccc(Cc2cc([C@@H]3O[C@H](CO)[C@@H](O)[C@H](O)[C@H]3O)ccc2Cl)cc1 [dapagliflozin PGS, dapagliflozin (S)-propylene glycol solvate]
glucosuric effect, loss of calories in the urine as compared to GSK 869,682 (healthy subjects): significant loss of calories in the urine
fasting serum glucose (FSG) levels (type 2 diabetic patients; two-week period): Dose-dependent reduction
postprandial glucose levels in oral glucose tolerance tests (OGTT) (type 2 diabetic patients; two-week period): reduced
urine volumes (type 2 diabetic patients; two-week period): no increase
urinary glucose levels within a 24-hour time period (type 2 diabetic patients; versus placebo, FIG. 3): increased
urine glucose excretion compared to placebo (patients with diabetes): higher
OGT (diabetic patients; [2]): improved
reduced HbAlC levels (diabetic patients; [2]): 0.71-0.9%

CCOc1ccc(Cc2cc([C@@H]3O[C@H](CO)[C@@H](O)[C@H](O)[C@H]3O)ccc2Cl)cc1 [dapagliflozin]
selectivity for SGLT2 relative to SGLT1 [1]: High selectivity for SGLT2
